Legend:
[1] = tested on: oxytocin-induced uterine contractions in the rat; experiment: In vivo model for inhibition of uterine contractions; details: subcutaneous, NP3S, 5 ml/kg
Protocol: d) In Vivo Model for Inhibition of Uterine Contractions
The assay intends to show the biological effect of tested compounds in an in vivo model of preterm labor, premature birth.
Non-pregnant Charles River CD(SD) BR female rats (9–10 weeks old, 200–250 g) were treated at 18 and 24 hours before the experiment with 250 μg/kg, i.p. diethylstilbestrol (DES). For the assay, the animal was anaesthetised by urethane (1.75 g/kg, i.p.) and placed on an homeothermic operating table. The trachea was isolated and cannulated with a suitable polyethylene (PE) tubing. A midline incision at the hypogastrium level was made and one uterine horn exposed, its cephalic end cannulated with a PE240 tubing and, after filling the internal cavity with 0.2 ml of sterile physiological saline, connected to a “Gemini” amplifying/recording system via a P231D Gould Statham pressure transducer, in, order to measure said pressure. For the i.v. route of administration of the test compounds, one jugular vein was isolated and cannulated with a PE60 tubing connected to a butterfly needle to allow the administration by a dispensing syringe. In the case of intraduodenal administration of the test compounds, the duodenum was isolated and similarly cannulated through a small incision in its wall. One carotid artery was also isolated and cannulated with PE60 catheter and connected to a suitable syringe for blood sample collection (see below). After a stabilization period, the same dose of oxytocin was repeatedly injected intravenously at 30-min intervals. […] Further injections of the same dose of oxytocin were then made for a suitable time after treatment to assess inhibitory effects of the compounds under study. The contractile response of the uterus to oxytocin was quantified by measuring the intrauterine pressure and the number of contractions.
A total of six animals is forming one group which is treated with a given test compound at a given concentration (see above).
The effect of the test compounds were evaluated by comparing pre- and post-treatment pressure values. In addition, at 2, 30, 90 and 210 minutes after test compound administration, a 0.5-ml blood sample was withdrawn from the cannulated carotid artery of each experimental animal. Plasma was obtained by standard laboratory procedure and the resulting samples were stored at −20° C.
The activities of the pyrrolidine derivatives claimed in the formula I were assessed using the above described in vivo biological assay. The values refer to the capacity of the example compound according to formula I to effectively antagonize oxytocin-induced uterine contractions in the rat.

[2] = tested on: oxytocin-induced uterine contractions in the rat; experiment: In vivo model for inhibition of uterine contractions; details: subcutaneous, NP3S, 5 ml/kg, 10 mg/kg

melting point: 141 °C
SMILES: CO/N=C1/C[C@@H](c2nc(CCO)no2)N(C(=O)c2ccc(-c3ccccc3)cc2)C1 [(3Z,5S)-1-([1,1′-biphenyl]-4-ylcarbonyl)-5-[3-(2-hydroxyethyl)-1,2,4-oxadiazol-5-yl]-3-pyrrolidinone O-methyloxime]
% Reduction of Uterine Contraction ([1]; 1 mg/kg): −13.2 ± 5.6% | % Reduction of Uterine Contraction ([1]; 3 mg/kg): −30.2 ± 1.1% | % Reduction of Uterine Contraction ([1]; 30 mg/kg): −57.5 ± 8.6% | % Reduction of Uterine Contraction [2]: −39.7 ± 7.2%

Source: US7115639B2, “Pyrrolidine oxadiazole- and thiadiazole oxime derivatives being oxytocin receptor antagonists” (Applied Research Systems ARS Holding N.V., priority 2001, dated 2006)
